Patent US20090227572A1, “TREATMENT OF DIABETIC WOUNDS AND PERIPHERAL NEUROPATHIES” (Cytrx Corporation, priority 2007, published 2009)

What was measured:
[1] = system: Homozygous, diabetic mice; assay: Wound healing in homozygous diabetic mice, systemic or topical administration (Example 2); type: in vivo; details: topical administration, 4% w/v aqueous solution, FIG. 7
Protocol: Homozygous, diabetic mice described above, and wounded in the manner described above in Example 1, were treated by topical administration of iroxanadine or arimoclomol. A 4% w/v aqueous solution of arimoclomol were separately administered topically to the wounded position. […] dosage of iroxanadine was at 10 mg/kg IP, b.i.d., a relatively low concentration.

[2] = system: BKS.Cg-m^+/+ Lepr^db/J homozygous mice; assay: Wound healing in diabetic db/db mice, daily oral dosing (Example 1); type: in vivo
Description: Seventy male BKS.Cg-m^+/+ Lepr^db/J homozygous mice were housed and handled for seven (7) days prior to commencement of the procedure for acclimation purposes. The mice weighed 26.1-41.2 g on Day 0, at the age of 8 weeks. As control, twenty male BKS.Cg-m^+/− Lepr^db/J heterozygous mice were handled similarly. These mice weighed 19.6-25.1 g on Day 0, at the age of 8 weeks. Mice were divided into Groups (1) to (9), each group consisting of 10 mice.
On Day 0, two full-thickness wounds were made on each mouse in Groups A-I (n=80). […]
Immediately following the generation of the skin wound, the original wound was traced by using a fine point maker to outline the perimeter of the wound onto transparency paper (the mouse was immobilized using isoflurane anesthesia for this procedure), and wound size was then traced every 3 days. […] Outlines were digitized, quantified and analyzed using computer imaging software as described below.
The mice began daily dosing as detailed in Table 1 on the day of wounding. The mice continued to receive daily treatment until wound closure as determined by the study director and the client. Blood glucose levels were measured by glucometer prior to the first scheduled dosing and weekly thereafter-using blood collected by tail nick. Body weights were measured weekly beginning prior to treatment. […]
Raw data was reviewed (read and understood) for accuracy. […]

[3] = rat, subchronic studies; cited from earlier work
[4] = Morbidity, mortality and body weights in the wound healing study (Example 1); type: in vivo, mice
Protocol: The mice began daily dosing as detailed in Table 1 on the day of wounding. The mice continued to receive daily treatment until wound closure as determined by the study director and the client. Blood glucose levels were measured by glucometer prior to the first scheduled dosing and weekly thereafter-using blood collected by tail nick. Body weights were measured weekly beginning prior to treatment. Clinical observations were conducted weekly.

[5] = mice, previously determined; cited from earlier work

Row | Compound | wound healing over time [1] | wound closure rate ([2]; rate analysed for Days 0-8 (with ethanol) and Days 9-12 (no ethanol), FIG. 5E) | odds of closure of both wounds (hazard ratio, proportional hazard model) ([2]; relative to homozygous diabetic control Group (3), iroxanadine 10-200 mg/kg Groups (4)-(8), arimoclomol 200 mg/kg Group 9, QD PO, FIG. 4) | no observed adverse effect level (NOAEL) [3] | tolerability of the highest dose relative to maximum tolerated dose (MTD) ([4]; 200 mg/kg QD PO, administered with EtOH) | unplanned mice deaths outside of the study protocol ([4]; highest dose 200 mg/kg QD PO, Groups (2) and (8), formulation contained EtOH Days 0-8) | effect on body weight ([4]; mice, daily until wound closure, FIG. 1A-B) | acute oral LD50 [5]
1 | [O-][n+]1cccc(/C(Cl)=N/OC[C@H](O)CN2CCCCC2)c1 [arimoclomol, N-[2-hydroxy-3-(1-piperidinyl)propoxy]-pyridine-1-oxide-3-carboximidoyl chloride] | clearly showed an accelerated healing of wounds | statistically relevant increase in the wound closure rate | appeared to be effective in increasing the odds of wound closure | – | – | – | – | –
2 | c1cncc(C2=NOCC(CN3CCCCC3)N2)c1 (centres unmarked) [iroxanadine, 5,6-dihydro-5(1-piperidinyl)-methyl-3-(3-pyridyl)-4H-1,2,4-oxadiazine] | – | – | – | 400 mg/kg | may be above the maximum tolerated dose (MTD) and approaching LD50 | Eight of the nine deaths | No significant effect on body weight was observed except in diabetic animals treated with the highest dose | 3800 mg/kg
